Experiment [1] concerns the target memapsin 2 (Homo sapiens, UniProt P56817). The experiment is described as follows: Inhibition of memapsin 2 beta-secretase activity toward fluorogenic substrate FS-2. It is filed as biochemical. As to conditions: pH 4, 37° C., 20 minutes pre-incubation, fluorogenic substrate FS-2, tight-binding model; read-out: M2 Ki.
Procedure: Potency of compounds were determined by measurement of their inhibition of memapsin 2 activity toward a fluorescent substrate. […] Briefly, assays were performed at pH 4, 37° C., by pre-incubation of memapsin 2 enzyme with compound for 20 minutes. Activity measure was initiated by addition of a fluorogenic substrate FS-2 (Bachem Americas, Torrance, Calif.). Fluorescent signal increase over time was measured as a rate of hydrolysis of the peptide substrate.
Experiment [2] addresses T1, memapsin 2 (Cricetulus griseus, UniProt G3IAK4).
T1 construct: endogenous in cells; host or cells: Chinese hamster ovary cells over-expressing human APP695 (London + Swedish)
Briefly: Cellular Aβ IC50 determination (Aβ40 sandwich ELISA). Format: cell-based. As to conditions: Chinese hamster ovary cells over-expressing human APP695 with London and Swedish mutations, 24 h. On the procedure: The potency of compounds against memapsin 2 activity was determined in a cellular assay of Aβ production. […] Chinese hamster ovary cells that over-express human APP695 with the London and Swedish mutations were seeded in multi-well plates at 10% confluency. Compounds were dissolved in DMSO to concentrations near 1 mM, and diluted into culture media to a final concentration near 4 μM (final 0.4% DMSO). Compounds were diluted serially and applied to cells in multi-well plates 48 h after seeding. Incubation was continued in 5% CO2 at 37 degrees C. for 24 h. Aliquots were removed and assayed for Aβ40 content using a sandwich ELISA (BioSource International). Amount of Aβ40 over the range of concentration of compounds, relative to control incubations, were fit to a 4-parameter IC50 model.
For orientation: In an ELISA, binding on a coated surface is turned into a signal by an enzyme label.

In general, Ki refers to a measure of affinity in units of concentration, obtained from inhibition or displacement. By IC50 is commonly meant the concentration at which inhibition is half-maximal. Low values mean greater potency, high ones weaker potency.

Each structure is given as a SMILES string.

T1 sequence (G3IAK4 22-501): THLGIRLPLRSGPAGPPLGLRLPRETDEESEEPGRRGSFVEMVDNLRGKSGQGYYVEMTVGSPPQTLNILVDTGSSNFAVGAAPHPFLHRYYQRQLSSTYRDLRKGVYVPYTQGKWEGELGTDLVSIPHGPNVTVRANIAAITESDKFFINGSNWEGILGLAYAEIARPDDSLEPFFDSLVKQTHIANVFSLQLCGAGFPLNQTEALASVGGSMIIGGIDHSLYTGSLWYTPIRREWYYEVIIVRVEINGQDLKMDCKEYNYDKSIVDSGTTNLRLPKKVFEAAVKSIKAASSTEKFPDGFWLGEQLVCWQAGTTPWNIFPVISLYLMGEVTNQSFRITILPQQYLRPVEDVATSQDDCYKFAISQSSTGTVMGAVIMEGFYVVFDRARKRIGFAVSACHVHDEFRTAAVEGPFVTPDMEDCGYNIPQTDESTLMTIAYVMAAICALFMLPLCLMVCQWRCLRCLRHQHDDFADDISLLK
Chain of memapsin 2 (Homo sapiens, UniProt P56817) (P56817 46-501): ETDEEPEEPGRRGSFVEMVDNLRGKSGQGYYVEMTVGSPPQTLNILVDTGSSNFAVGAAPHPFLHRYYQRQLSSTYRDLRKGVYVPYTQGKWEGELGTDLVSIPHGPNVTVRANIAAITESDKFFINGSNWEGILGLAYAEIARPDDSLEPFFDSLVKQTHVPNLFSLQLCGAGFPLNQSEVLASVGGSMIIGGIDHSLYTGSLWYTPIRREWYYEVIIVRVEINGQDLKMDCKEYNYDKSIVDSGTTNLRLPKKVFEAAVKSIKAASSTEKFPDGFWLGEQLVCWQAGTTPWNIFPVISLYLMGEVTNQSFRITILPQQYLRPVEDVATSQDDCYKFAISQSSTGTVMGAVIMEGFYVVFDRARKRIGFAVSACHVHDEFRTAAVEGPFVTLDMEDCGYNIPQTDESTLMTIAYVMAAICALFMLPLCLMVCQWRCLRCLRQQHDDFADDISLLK

Regarding `CCC(Cn1nc(C)cc1C)C(=O)NC(CNC(=O)OC(C)(C)C)C(=O)NC(CC(C)C)C(O)CC(C)C(=O)NC(C(=O)NCc1nc(C)cs1)C(C)C` (centres unmarked) [tert-butyl 2-(2-((3,5-dimethyl-1H-pyrazol-1-yl)methyl)butanamido)-3-(5-hydroxy-2,7-dimethyl-8-(3-methyl-1-((4-methylthiazol-2-yl)methylamino)-1-oxobutan-2-ylamino)-8-oxooctan-4-ylamino)-3-oxopropylcarbamate], the inhibition constant Ki at memapsin 2 [1] is < 0.1 µM. For the same compound, the 50% inhibitory concentration (IC50) against memapsin 2 [2] is < 6 µM.
